For data set [1], the system named is Hepatotoxicity. The data set can be described thus: Literature-mined compound from Fourches et al multi-species drug-induced liver injury (DILI) dataset, effect in non-rodents.
The test system of data set [2] is Hepatotoxicity. The data set is described as follows: Literature-mined compound from Fourches et al multi-species drug-induced liver injury (DILI) dataset, effect in rodents. The settings on record: rodentia.
The subject of data set [3] is Hepatotoxicity. The data set can be described thus: Literature-mined compound from Fourches et al multi-species drug-induced liver injury (DILI) dataset, effect in humans. The following applies: human.

For the molecule `Cc1ccc(O)c([C@H](CCN(C(C)C)C(C)C)c2ccccc2)c1` [TOLTERODINE], the Hepatotoxicity result was “no drug-induced liver injury reported” with Hepatotoxicity [1], “no drug-induced liver injury reported” in the data set on Hepatotoxicity [2] and “drug-induced liver injury reported” in the data set on Hepatotoxicity [3].
For `CC1(C)O[C@@H]2[C@@H](CO[C@@]3(COS(N)(=O)=O)OC(C)(C)O[C@@H]23)O1` [TOPIRAMATE], the Hepatotoxicity entry in the data set with Hepatotoxicity [1] is recorded as “no drug-induced liver injury reported”; in the data set on Hepatotoxicity [2], “no drug-induced liver injury reported”; in the data set on Hepatotoxicity [3] it was “drug-induced liver injury reported”.
As for `CN(C)CCOc1ccc(/C(=C(/CCCl)c2ccccc2)c2ccccc2)cc1` [TOREMIFENE], the Hepatotoxicity result is “no drug-induced liver injury reported” in the data set with Hepatotoxicity [1], “drug-induced liver injury reported” in the data set with Hepatotoxicity [2] and “drug-induced liver injury reported” in the data set with Hepatotoxicity [3].
`COc1cc2c(cc1O)CCN[C@]21CS[C@@H]2c3c(OC(C)=O)c(C)c4c(c3[C@H](COC1=O)N1[C@@H]2[C@H]2c3c(cc(C)c(OC)c3O)C[C@@H]([C@@H]1O)N2C)OCO4` [TRABECTEDIN]: the Hepatotoxicity entry in the data set with Hepatotoxicity [1] is “no drug-induced liver injury reported”; with Hepatotoxicity [2] it was “drug-induced liver injury reported”; in the data set on Hepatotoxicity [3], “drug-induced liver injury reported”.
On to `COc1cccc(C2(O)CCCCC2CN(C)C)c1` (configuration not stated) [TRAMADOL], for which the values for the Hepatotoxicity entry in the data set with Hepatotoxicity [1], in the data set on Hepatotoxicity [2] and with Hepatotoxicity [3] were “no drug-induced liver injury reported”, “drug-induced liver injury reported” and “drug-induced liver injury reported”, respectively.
On to `CCOC(=O)[C@H](CCc1ccccc1)N[C@@H](C)C(=O)N1[C@H](C(=O)O)C[C@H]2CCCC[C@@H]21` [TRANDOLAPRIL], for which the values for the Hepatotoxicity entry in the data set on Hepatotoxicity [1], in the data set on Hepatotoxicity [2] and in the data set with Hepatotoxicity [3] were “no drug-induced liver injury reported”, “no drug-induced liver injury reported” and “drug-induced liver injury reported”, respectively.
`N[C@@H]1C[C@H]1c1ccccc1.N[C@H]1C[C@@H]1c1ccccc1` [TRANYLCYPROMINE]: the Hepatotoxicity entry in the data set on Hepatotoxicity [1] (Liver), in the data set with Hepatotoxicity [2] (Liver) and in the data set on Hepatotoxicity [3] (Liver) was “drug-induced liver injury reported” each time.
Consider `O=c1n(CCCN2CCN(c3cccc(Cl)c3)CC2)nc2ccccn12` [TRAZODONE], for which the Hepatotoxicity result in the data set on Hepatotoxicity [1] is recorded as “no drug-induced liver injury reported”; in the data set with Hepatotoxicity [2], “no drug-induced liver injury reported”; in the data set with Hepatotoxicity [3], “drug-induced liver injury reported”.
As to `CC1=C(/C=C/C(C)=C/C=C/C(C)=C/C(=O)O)C(C)(C)CCC1` [TRETINOIN], the Hepatotoxicity result with Hepatotoxicity [1] was “no drug-induced liver injury reported”; in the data set with Hepatotoxicity [2], “drug-induced liver injury reported”; in the data set on Hepatotoxicity [3] it was “drug-induced liver injury reported”.
`CC1(C)O[C@@H]2C[C@H]3[C@@H]4CCC5=CC(=O)C=C[C@]5(C)[C@@]4(F)[C@@H](O)C[C@]3(C)[C@]2(C(=O)CO)O1` [TRIAMCINOLONE ACETONIDE]: the Hepatotoxicity result is given as “no drug-induced liver injury reported” with Hepatotoxicity [1], “drug-induced liver injury reported” in the data set with Hepatotoxicity [2] and “no drug-induced liver injury reported” with Hepatotoxicity [3].
Consider `C[C@]12C=CC(=O)C=C1CC[C@H]1[C@@H]3C[C@@H](O)[C@](O)(C(=O)CO)[C@@]3(C)C[C@H](O)[C@@]12F` [TRIAMCINOLONE], for which the Hepatotoxicity result in the data set with Hepatotoxicity [1] is given as “no drug-induced liver injury reported”; in the data set on Hepatotoxicity [2], “drug-induced liver injury reported”; in the data set with Hepatotoxicity [3] it was “no drug-induced liver injury reported”.
On to `COP(=O)(OC)C(O)C(Cl)(Cl)Cl` (configuration not stated) [TRICHLORFON], for which the Hepatotoxicity entry in the data set on Hepatotoxicity [1] is “no drug-induced liver injury reported”; in the data set with Hepatotoxicity [2] it was “drug-induced liver injury reported”; in the data set with Hepatotoxicity [3], “no drug-induced liver injury reported”.
Take `O=C(O)C(Cl)(Cl)Cl` [TRICHLOROACETIC ACID]: the results for the Hepatotoxicity result in the data set with Hepatotoxicity [1], in the data set on Hepatotoxicity [2] and with Hepatotoxicity [3] were “no drug-induced liver injury reported”, “drug-induced liver injury reported” and “no drug-induced liver injury reported”, respectively.
As for `ClC=C(Cl)Cl` [TRICHLOROETHYLENE], the Hepatotoxicity result is reported as “no drug-induced liver injury reported” with Hepatotoxicity [1], “drug-induced liver injury reported” in the data set on Hepatotoxicity [2] and “drug-induced liver injury reported” with Hepatotoxicity [3].
As to `Oc1cc(Cl)ccc1Oc1ccc(Cl)cc1Cl` [TRICLOSAN], the values for the Hepatotoxicity result in the data set with Hepatotoxicity [1], in the data set with Hepatotoxicity [2] and in the data set on Hepatotoxicity [3] were “no drug-induced liver injury reported”, “drug-induced liver injury reported” and “no drug-induced liver injury reported”, respectively.
Consider `COc1ccc(CN2CCNCC2)c(OC)c1OC` [TRIMETAZIDINE], for which the Hepatotoxicity entry is given as “no drug-induced liver injury reported” in the data set on Hepatotoxicity [1], “drug-induced liver injury reported” in the data set with Hepatotoxicity [2] and “drug-induced liver injury reported” with Hepatotoxicity [3].
Turning to `CN1C(=O)OC(C)(C)C1=O` [TRIMETHADIONE], the Hepatotoxicity result in the data set on Hepatotoxicity [1] is recorded as “no drug-induced liver injury reported”; in the data set with Hepatotoxicity [2], “drug-induced liver injury reported”; in the data set on Hepatotoxicity [3], “drug-induced liver injury reported”.
Take `CC1(C)C2CCC1(CS(=O)(=O)[O-])C(=O)C2.O=C1N(Cc2ccccc2)C2C[S+]3CCCC3C2N1Cc1ccccc1` (configuration not stated) [TRIMETHAPHAN CAMSYLATE]: the results for the Hepatotoxicity entry in the data set on Hepatotoxicity [1], in the data set with Hepatotoxicity [2] and with Hepatotoxicity [3] were “drug-induced liver injury reported”, “no drug-induced liver injury reported” and “no drug-induced liver injury reported”, respectively.
For `COc1cc(Cc2cnc(N)nc2N)cc(OC)c1OC` [TRIMETHOPRIM], the results for the Hepatotoxicity entry with Hepatotoxicity [1] (Liver), in the data set on Hepatotoxicity [2] (Liver) and with Hepatotoxicity [3] (Liver) were “no drug-induced liver injury reported”, “drug-induced liver injury reported” and “drug-induced liver injury reported”, respectively.
Take `Cc1c(C)c2c(c(C)c1O)CCC(C)(COc1ccc(CC3SC(=O)NC3=O)cc1)O2` (configuration not stated) [TROGLITAZONE]: the Hepatotoxicity result with Hepatotoxicity [1], in the data set on Hepatotoxicity [2] and in the data set with Hepatotoxicity [3] was “drug-induced liver injury reported” in each case.
For `CO[C@H]1C[C@H](O[C@H]2[C@H](C)[C@@H](O[C@@H]3O[C@H](C)C[C@H](N(C)C)[C@H]3OC(C)=O)[C@@H](C)C[C@@]3(CO3)C(=O)[C@H](C)[C@@H](OC(C)=O)[C@@H](C)[C@@H](C)OC(=O)[C@@H]2C)O[C@@H](C)[C@@H]1OC(C)=O` [TROLEANDOMYCIN], the Hepatotoxicity result with Hepatotoxicity [1], with Hepatotoxicity [2] and with Hepatotoxicity [3] was “drug-induced liver injury reported” each time.
On to `Cc1cc(-c2ccc(/N=N/c3c(S(=O)(=O)[O-])cc4cc(S(=O)(=O)[O-])cc(N)c4c3O)c(C)c2)ccc1/N=N/c1c(S(=O)(=O)[O-])cc2cc(S(=O)(=O)[O-])cc(N)c2c1O.[Na+].[Na+].[Na+].[Na+]` [TRYPAN BLUE], for which the Hepatotoxicity result in the data set with Hepatotoxicity [1] was “no drug-induced liver injury reported”; with Hepatotoxicity [2], “drug-induced liver injury reported”; in the data set with Hepatotoxicity [3], “no drug-induced liver injury reported”.
In the case of `N[C@@H](Cc1c[nH]c2ccccc12)C(=O)O` [TRYPTOPHAN], the Hepatotoxicity entry in the data set with Hepatotoxicity [1] is “no drug-induced liver injury reported”; in the data set on Hepatotoxicity [2], “drug-induced liver injury reported”; with Hepatotoxicity [3], “no drug-induced liver injury reported”.
Consider `COC1=C(OC)C(=O)C(C/C=C(\C)CC/C=C(\C)CC/C=C(\C)CC/C=C(\C)CC/C=C(\C)CC/C=C(\C)CC/C=C(\C)CC/C=C(\C)CC/C=C(\C)CCC=C(C)C)=C(C)C1=O` [UBIDECARENONE], for which the Hepatotoxicity entry in the data set on Hepatotoxicity [1] was “no drug-induced liver injury reported”; in the data set with Hepatotoxicity [2], “drug-induced liver injury reported”; with Hepatotoxicity [3], “no drug-induced liver injury reported”.
For `O=c1cc[nH]c(=O)[nH]1` [URACIL], the values for the Hepatotoxicity result in the data set with Hepatotoxicity [1], in the data set with Hepatotoxicity [2] and with Hepatotoxicity [3] were “no drug-induced liver injury reported”, “drug-induced liver injury reported” and “drug-induced liver injury reported”, respectively.
Turning to `NC(N)=O` [UREA], the Hepatotoxicity result is reported as “no drug-induced liver injury reported” in the data set with Hepatotoxicity [1], “drug-induced liver injury reported” with Hepatotoxicity [2] and “no drug-induced liver injury reported” in the data set on Hepatotoxicity [3].
For the molecule `O=c1ccn([C@@H]2O[C@H](CO)[C@@H](O)[C@H]2O)c(=O)[nH]1` [URIDINE], the Hepatotoxicity entry with Hepatotoxicity [1] is reported as “no drug-induced liver injury reported”; in the data set with Hepatotoxicity [2], “drug-induced liver injury reported”; with Hepatotoxicity [3] it was “drug-induced liver injury reported”.
For the molecule `C[C@H](CCC(=O)O)[C@H]1CC[C@H]2[C@@H]3[C@@H](O)C[C@@H]4C[C@H](O)CC[C@]4(C)[C@H]3CC[C@]12C` [URSODIOL], the Hepatotoxicity result with Hepatotoxicity [1], with Hepatotoxicity [2] and in the data set on Hepatotoxicity [3] was “drug-induced liver injury reported” in each case.
On to `C/C=C/C[C@@H](C)C(=O)[C@H]1C(=O)N[C@@H](C(C)C)C(=O)N(C)CC(=O)N(C)[C@@H](CC(C)C)C(=O)N[C@@H](C(C)C)C(=O)N(C)[C@@H](CC(C)C)C(=O)N[C@@H](C)C(=O)N[C@H](C)C(=O)N(C)[C@@H](CC(C)C)C(=O)N(C)[C@@H](CC(C)C)C(=O)N(C)[C@@H](C(C)C)C(=O)N1C` [VALSPODAR], for which the values for the Hepatotoxicity entry in the data set on Hepatotoxicity [1], in the data set with Hepatotoxicity [2] and with Hepatotoxicity [3] were “no drug-induced liver injury reported”, “drug-induced liver injury reported” and “drug-induced liver injury reported”, respectively.

The record behind these values is ChEMBL document CHEMBL1697731, “Cheminformatics analysis of assertions mined from literature that describe drug-induced liver injury in different species” (Chem Res Toxicol, 2010).
